Measurements from patent US7807676B2, “Diketo-Piperazine and Piperidine derivatives as antiviral agents” (priority 2006, dated 2010).

System: HIV-1 single-round infectious reporter virus
Assay: Single-round infectious HIV-1 luciferase reporter virus infection of HeLa CD4 cells (antiviral EC50)
Format: cell-based
Conditions: Human immunodeficiency virus 1, HeLa, read-out: EC50 Group from Table 3
Outline: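 Compound (≤10 μM final, 10 concentrations) was added to HeLa CD4 cells together with luciferase-reporter HIV-1 pseudovirus (nef replaced by luciferase, envelope supplied in trans) at MOI ~0.01. Cells were lysed 72 h post-infection at 37 °C for luminescence; percent inhibition versus untreated infection, fitted four-parameter logistic for EC50.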

| Compound | EC50 [nM] |
| --- | --- |
| CC(C)Oc1nccnc1N1CCN(C(=O)C(=O)c2c[nH]c3c(-n4ccnn4)ncc(F)c23)CC1 [D-35] | < 500 |
| C[C@@H]1CN(c2nn(C)c(=O)cc2-c2ccccc2)CCN1C(=O)C(=O)c1c[nH]c2c(-n3ccnn3)ncc(F)c12 [D-36] | > 500 |
| CN(C)CCCNC(=O)c1cccnc1N1CCN(C(=O)C(=O)c2c[nH]c3c(-n4ccnn4)ncc(F)c23)CC1 [D-37] | > 500 |
| O=C(C(=O)N1CCN(c2ncccc2C(=O)N2CCOCC2)CC1)c1c[nH]c2c(-n3ccnn3)ncc(F)c12 [D-38] | > 500 |
| Cc1cc(NC(=O)c2cccnc2N2CCN(C(=O)C(=O)c3c[nH]c4c(-n5ccnn5)ncc(F)c34)CC2)no1 [D-39] | > 500 |
| CCOC(=O)CCC(=O)c1cccnc1N1CCN(C(=O)C(=O)c2c[nH]c3c(-n4ccnn4)ncc(F)c23)CC1 [D-40] | > 500 |
| CCOC(=O)CCCC(=O)c1cccnc1N1CCN(C(=O)C(=O)c2c[nH]c3c(-n4ccnn4)ncc(F)c23)CC1 [D-41] | > 500 |
| CCOC(=O)CCCCC(=O)c1cccnc1N1CCN(C(=O)C(=O)c2c[nH]c3c(-n4ccnn4)ncc(F)c23)CC1 [D-42] | > 500 |
| CCOC(=O)CCCCCC(=O)c1cccnc1N1CCN(C(=O)C(=O)c2c[nH]c3c(-n4ccnn4)ncc(F)c23)CC1 [D-43] | > 500 |
| CCOC(=O)CCCCCCC(=O)c1cccnc1N1CCN(C(=O)C(=O)c2c[nH]c3c(-n4ccnn4)ncc(F)c23)CC1 [D-44] | > 500 |
| N#CCCC(=O)c1cccnc1N1CCN(C(=O)C(=O)c2c[nH]c3c(-n4ccnn4)ncc(F)c23)CC1 [D-45] | > 500 |
| N#CCCCC(=O)c1cccnc1N1CCN(C(=O)C(=O)c2c[nH]c3c(-n4ccnn4)ncc(F)c23)CC1 [D-46] | > 500 |
| O=C(C(=O)N1CCN(c2nsnc2N2CCCC2)CC1)c1c[nH]c2c(-n3ccnn3)ncc(F)c12 [D-47] | < 500 |
| N#Cc1cccc(CC(=O)c2cccnc2N2CCN(C(=O)C(=O)c3c[nH]c4c(-n5ccnn5)ncc(F)c34)CC2)c1 [D-48] | < 500 |
| COc1cnc(-n2cnc(C)n2)c2[nH]cc(C(=O)C(=O)N3CCN(c4nccnc4OC(C)C)CC3)c12 [D-49] | < 500 |
| COc1cnc(-n2cnc(C)n2)c2[nH]cc(C(=O)C(=O)N3CCN(c4nn(C)c(=O)cc4-c4ccccc4)C[C@H]3C)c12 [D-50] | > 500 |
| COc1cnc(-n2cnc(C)n2)c2[nH]cc(C(=O)C(=O)N3CCN(c4ncccc4C(=O)NCCCN(C)C)CC3)c12 [D-51] | > 500 |
| O=C(C(=O)N1CCN(c2nnnn2-c2ccccn2)CC1)c1c[nH]c2c(-n3ccnn3)ncc(F)c12 [E-1, 1-(4-fluoro-7-(1H-1,2,3-triazol-1-yl)-1H-pyrrolo[2,3-c]pyridinyl-3-yl)-2-(4-(1-(pyridin-2-yl)-1H-tetrazol-5-yl)piperazin-1-yl)ethane-1,2-dione] | < 500 |
| COc1cnc(-n2cnc(C)n2)c2[nH]cc(C(=O)C(=O)N3CCN(c4nnnn4-c4ccccn4)CC3)c12 [E-2] | < 500 |
| O=C(C(=O)N1CCN(c2nnnn2-c2cccnc2)CC1)c1c[nH]c2c(-n3ccnn3)ncc(F)c12 [E-3] | < 500 |

| Compound | EC50 [nM] |
| --- | --- |
| O=C(C(=O)N1CCN(c2nnnn2-c2nccs2)CC1)c1c[nH]c2c(-n3ccnn3)ncc(F)c12 [E-4] | < 500 |
| COc1cnc(-n2cnc(C)n2)c2[nH]cc(C(=O)C(=O)N3CCN(c4nnnn4-c4nccs4)CC3)c12 [E-5] | < 500 |
| O=C(C(=O)N1CCN(c2nnnn2-c2ncco2)CC1)c1c[nH]c2c(-n3ccnn3)ncc(F)c12 [E-6] | < 500 |
| COc1cnc(-n2cnc(C)n2)c2[nH]cc(C(=O)C(=O)N3CCN(c4nnnn4-c4ncco4)CC3)c12 [E-7] | < 500 |
| O=C(C(=O)N1CCN(c2nnnn2C2CCCCC2)CC1)c1c[nH]c2c(-n3ccnn3)ncc(F)c12 [E-8] | < 500 |
| COc1cccc(-n2nnnc2N2CCN(C(=O)C(=O)c3c[nH]c4c(-n5ccnn5)ncc(F)c34)CC2)c1 [E-9] | < 500 |
| COc1ccc(-n2nnnc2N2CCN(C(=O)C(=O)c3c[nH]c4c(-n5ccnn5)ncc(F)c34)CC2)cc1 [E-10] | > 500 |
| N#Cc1cccc(-n2nnnc2N2CCN(C(=O)C(=O)c3c[nH]c4c(-n5ccnn5)ncc(F)c34)CC2)c1 [E-11] | > 500 |
| N#Cc1ccc(-n2nnnc2N2CCN(C(=O)C(=O)c3c[nH]c4c(-n5ccnn5)ncc(F)c34)CC2)cc1 [E-12] | > 500 |
| COc1cnc(-n2cnc(C)n2)c2[nH]cc(C(=O)C(=O)N3CCN(c4nnnn4-c4cccc(F)n4)CC3)c12 [E-12a] | < 500 |
| COc1cnc(-n2cnc(C)n2)c2[nH]cc(C(=O)C(=O)N3CCN(c4nnnn4-c4cccc(N)n4)CC3)c12 [E-12b] | < 500 |
| COc1cnc(-n2cnc(C)n2)c2[nH]cc(C(=O)C(=O)N3CCN(c4nnnn4-c4cccc(O)n4)CC3)c12 [E-12c] | < 500 |
| COc1cnc(-n2cnc(C)n2)c2[nH]cc(C(=O)C(=O)N3CCN(c4nnnn4-c4cccnn4)CC3)c12 [E-12d] | < 500 |
| O=C(C(=O)N1CCN(c2ccnn2-c2ccccn2)CC1)c1c[nH]c2c(-n3ccnn3)ncc(F)c12 [E-14, 1-(4-fluoro-7-(1H-1,2,3-triazol-1-yl)-1H-pyrrolo[2,3-c]pyridinyl-3-yl)-2-(4-(1-(pyridin-2-yl)-1H-pyrazol-5-yl)piperazin-1-yl)ethane-1,2-dione] | < 500 |
| COc1cnc(-n2cnc(C)n2)c2[nH]cc(C(=O)C(=O)N3CCN(c4ccnn4-c4ccccn4)CC3)c12 [E-15, 1-(4-methoxy-7-(3-methyl-1H-1,2,4-triazol-1-yl)-1H-pyrrolo[2,3-c]pyridinyl-3-yl)-2-(4-(1-(pyridin-2-yl)-1H-pyrazol-5-yl)piperazin-1-yl)ethane-1,2-dione] | < 500 |
| O=C(C(=O)N1CCN(c2cn[nH]c2-c2ccccn2)CC1)c1c[nH]c2c(-n3ccnn3)ncc(F)c12 [E-16, 1-(4-fluoro-7-(1H-1,2,3-triazol-1-yl)-1H-pyrrolo[2,3-c]pyridinyl-3-yl)-2-(4-(3-(pyridin-2-yl)-1H-pyrazol-4-yl)piperazin-1-yl)ethane-1,2-dione] | < 500 |
| COc1cnc(-n2cnc(C)n2)c2[nH]cc(C(=O)C(=O)N3CCN(c4cn[nH]c4-c4ccccn4)CC3)c12 [E-17, 1-(4-methoxy-7-(3-methyl-1H-1,2,4-triazol-1-yl)-1H-pyrrolo[2,3-c]pyridinyl-3-yl)-2-(4-(3-(pyridin-2-yl)-1H-pyrazol-4-yl)piperazin-1-yl)ethane-1,2-dione] | < 500 |
| CN1CCN(C(=O)c2cc(-c3ncc(F)c4c(C(=O)C(=O)N5CCN(c6nnnn6-c6ccccc6)CC5)c[nH]c34)n[nH]2)CC1 [F-1] | < 500 |
| CN1CCC(N(C)C(=O)c2cc(-c3ncc(F)c4c(C(=O)C(=O)N5CCN(c6nnnn6-c6ccccc6)CC5)c[nH]c34)n[nH]2)C1 (stereo not drawn) [F-2] | < 500 |
| O=C(C(=O)N1CCN(c2nnnn2-c2ccccc2)CC1)c1c[nH]c2c(-c3cc(C(=O)N4CC[C@@H](O)C4)[nH]n3)ncc(F)c12 [F-3] | < 500 |

| Compound | EC50 [nM] |
| --- | --- |
| O=C(C(=O)N1CCN(c2nnnn2-c2ccccc2)CC1)c1c[nH]c2c(-c3cc(C(=O)N4CCN(C(=O)C5CCCO5)CC4)[nH]n3)ncc(F)c12 (stereo not drawn) [F-4] | < 500 |
| CC(=O)N1CCN(C(=O)c2cc(-c3ncc(F)c4c(C(=O)C(=O)N5CCN(c6nnnn6-c6ccccc6)CC5)c[nH]c34)n[nH]2)CC1 [F-5] | < 500 |
| O=C(C(=O)N1CCN(c2nnnn2-c2ccccc2)CC1)c1c[nH]c2c(-c3cc(C(=O)N4CCC[C@H]4CO)[nH]n3)ncc(F)c12 [F-6] | < 500 |
| O=C(C(=O)N1CCN(c2nnnn2-c2ccccc2)CC1)c1c[nH]c2c(-c3cc(C(=O)N4CCN(CCN5CCOCC5)CC4)[nH]n3)ncc(F)c12 [F-7] | < 500 |
| O=C(C(=O)N1CCN(c2nnnn2-c2ccccc2)CC1)c1c[nH]c2c(-c3cc(C(=O)N4CCN(CCO)CC4)[nH]n3)ncc(F)c12 [F-8] | < 500 |
| CCN(C)C(=O)c1cc(-c2ncc(F)c3c(C(=O)C(=O)N4CCN(c5nnnn5-c5ccccc5)CC4)c[nH]c23)n[nH]1 [F-9] | < 500 |
| O=C(C(=O)N1CCN(c2nnnn2-c2ccccc2)CC1)c1c[nH]c2c(-c3cc(C(=O)N4CCSC4)[nH]n3)ncc(F)c12 [F-10] | < 500 |
| O=C(C(=O)N1CCN(c2nnnn2-c2ccccc2)CC1)c1c[nH]c2c(-c3cc(C(=O)N4CCCC(O)C4)[nH]n3)ncc(F)c12 (stereo not drawn) [F-11] | < 500 |
| O=C(NCCCN1CCCC1=O)c1cc(-c2ncc(F)c3c(C(=O)C(=O)N4CCN(c5nnnn5-c5ccccc5)CC4)c[nH]c23)n[nH]1 [F-12] | < 500 |
| CN1CCCC1CCNC(=O)c1cc(-c2ncc(F)c3c(C(=O)C(=O)N4CCN(c5nnnn5-c5ccccc5)CC4)c[nH]c23)n[nH]1 (stereo not drawn) [F-13] | < 500 |
| CC(=O)NCCNC(=O)c1cc(-c2ncc(F)c3c(C(=O)C(=O)N4CCN(c5nnnn5-c5ccccc5)CC4)c[nH]c23)n[nH]1 [F-14] | < 500 |
| COCCN1CCN(C(=O)c2cc(-c3ncc(F)c4c(C(=O)C(=O)N5CCN(c6nnnn6-c6ccccc6)CC5)c[nH]c34)n[nH]2)CC1 [F-15] | < 500 |
| O=C(C(=O)N1CCN(c2nnnn2-c2ccccc2)CC1)c1c[nH]c2c(-c3cc(C(=O)N4CCC(O)CC4)[nH]n3)ncc(F)c12 [F-16] | < 500 |
| COc1cnc(-n2cnc(C)n2)c2[nH]cc(C(=O)C(=O)N3CCN(c4nonc4-c4ccccc4)CC3)c12 [G-1a] | < 500 |
| O=C(C(=O)N1CCN(c2nonc2-c2ccccc2)CC1)c1c[nH]c2c(-n3ccnn3)ncc(F)c12 [G-1b] | < 500 |
| COc1cnc(-c2cnc(N3CCN(C)CC3)cn2)c2[nH]cc(C(=O)C(=O)N3CCN(c4nnnn4-c4ccccc4)CC3)c12 [G-2a] | < 500 |
| COc1cnc(-c2cnc(N3CCOCC3)cn2)c2[nH]cc(C(=O)C(=O)N3CCN(c4nnnn4-c4ccccc4)CC3)c12 [G-2b] | < 500 |
| COc1cnc(-c2cnc(-n3ccnc3)cn2)c2[nH]cc(C(=O)C(=O)N3CCN(c4nnnn4-c4ccccc4)CC3)c12 [G-2c] | < 500 |
| COc1cnc(-n2cnc(C)n2)c2[nH]cc(C(=O)C(=O)N3CCN(c4ncccc4-c4ccccc4)CC3)c12 [G-3a] | < 500 |
| O=C(C(=O)N1CCN(c2ncccc2-c2ccccc2)CC1)c1c[nH]c2c(-n3ccnn3)ncc(F)c12 [G-3b] | < 500 |
